The assay concerns the target T1, GloA (Salmonella enterica, UniProt P0A1Q2).
T1 construct: full length, His-tag (modified pET28a, tac promoter), E. coli BL21(DE3); unglycosylated form
T1 sequence (P0A1Q2 1-135): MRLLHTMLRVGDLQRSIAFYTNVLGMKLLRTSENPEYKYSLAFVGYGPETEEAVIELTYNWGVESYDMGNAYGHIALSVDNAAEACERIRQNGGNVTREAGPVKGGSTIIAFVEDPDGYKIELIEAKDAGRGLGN
Nature of the assay: S-lactoylglutathione production at OD240. The note with it: unglycosylated GloA 50 nM; hemithioacetal from 5 mM glutathione + 5 mM methylglyoxal; 100 mM NaH2PO4 pH 7.0. It is filed as biochemical.

As to `C[C@@H](O)C(=O)SC[C@H](NC(=O)CC[C@H](N)C(=O)O)C(=O)NCC(=O)O` [S-lactoylglutathione], the “S-lactoylglutathione production at OD240” value was “both hemithioacetal consumption and S-lactoylglutathione production was measured as a function of time”.

(Values after PMC7884692, “Arginine glycosylation enhances methylglyoxal detoxification” (Scientific Reports, 2021).)
